This note sets out measurements from patent publication US9839642B2, “Beta-tetrazolyl-propionic acids as metallo-beta-lactamase inhibitors” (priority 2014, dated 2017).

For one test, the target named is VIM-1 (Pseudomonas aeruginosa, UniProt A0A0F7KYQ8). Kind of test: Enzyme activity: determination of IC50, fluorescence assay with CCF2-FA substrate. It is filed as biochemical. The settings on record: enzyme 30 pM, CCF2-FA 1.25 μM, 2 hours at 25° C.; read-out: VIM1 IC50. Summed up:
(§1)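 Enzyme at 1 pM (NDM-1), 2 pM (IMP-1) or 30 pM (VIM-1) was incubated with inhibitor (20 μM to 0.00063 μM) and 1.25 μM CCF2-FA in 100 mM KH2PO4 pH 7, 0.005% Tween-20, 10 μM ZnSO4 for 2 hours at 25° C. Fluorescence was read at ex 405/em 460 nm; IC50 from 4-parameter fit.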

A further test has as its target NDM-1 (Klebsiella pneumoniae, UniProt C7C422). Described as above. Format: biochemical. The settings on record: enzyme 1 pM, CCF2-FA 1.25 μM, 2 hours at 25° C.; read-out: NDM1 IC50. In outline:
as §1

A further test addresses IMP-1 (Serratia marcescens, UniProt P52699). Described as above. It is filed as biochemical. The settings on record: enzyme 2 pM, CCF2-FA 1.25 μM, 2 hours at 25° C.; read-out: IMP1 IC50. In outline:
as §1

For test [1], the system named is Serratia marcescens expressing IMP-1 (CL5741). The experiment in a line: Antibiotic potentiation activity: synergistic concentration (MITC95) with imipenem, growth by OD600. Format: cell-based. The settings on record: 95% inhibition of bacterial growth, strain CL5741. In outline: (§2)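 Colonies from overnight agar plates (35 °C) were suspended in saline and diluted 1:100 into 1.1× CAMHB. Inhibitor (final 200 μM to 0.195 μM) was combined with imipenem at 1 or 4 μg/ml, incubated 22–24 h at 35 °C, and absorbance read; MITC95 is the lowest inhibitor concentration giving 95% growth inhibition.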

The test system of test [2] is Klebsiella pneumoniae expressing VIM-1 (IHMA599644). The description is as above. Format: cell-based. The settings on record: 95% inhibition of bacterial growth, strain IHMA599644. Summed up:
as §2

The test system of test [3] is Escherichia coli expressing NDM-1 (CLB30016). The description is as above. Format: cell-based. The settings on record: 95% inhibition of bacterial growth, strain CLB30016. Summed up:
as §2

NDM-1, sequence (C7C422 29-270, looked up, species assumed): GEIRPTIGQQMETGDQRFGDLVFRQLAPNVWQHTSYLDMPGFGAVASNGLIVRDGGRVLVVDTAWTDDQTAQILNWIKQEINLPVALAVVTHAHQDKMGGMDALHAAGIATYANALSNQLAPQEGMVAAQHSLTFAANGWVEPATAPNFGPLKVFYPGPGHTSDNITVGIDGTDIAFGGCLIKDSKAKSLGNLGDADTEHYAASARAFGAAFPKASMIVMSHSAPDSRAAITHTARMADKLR
IMP-1, sequence (P52699 19-246, looked up, species assumed): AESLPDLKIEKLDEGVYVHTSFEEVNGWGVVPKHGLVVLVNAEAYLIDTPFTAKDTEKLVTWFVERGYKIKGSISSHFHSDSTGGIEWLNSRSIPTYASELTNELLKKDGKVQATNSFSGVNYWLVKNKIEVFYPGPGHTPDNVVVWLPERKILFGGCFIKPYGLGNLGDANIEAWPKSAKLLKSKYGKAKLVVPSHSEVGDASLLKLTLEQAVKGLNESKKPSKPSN

On to `CC(C)[C@H](C(=O)O)[C@H](Cc1ccccc1C1=CCNC1)c1nnn[nH]1` [Example 70, (2S,3S)-4-(2-(2,5-dihydro-1H-pyrrol-3-yl)phenyl)-2-isopropyl-3-(1H-tetrazol-5-yl)butanoic acid], for which the IC50 on VIM-1 is 240 nM; on NDM-1, 180 nM; on IMP-1, more than 20000 nM. For the same molecule, the “IMP1 SM5741 MITC95” value in test [1] was more than 200 µM. In test [2], the “VIM1 KP599644 MITC95” value was found to be 50 µM. Further, the “NDM1 EC30016 MITC95” value in test [3] is 12.5 µM.
Regarding `Nc1ccc(-c2ccc(C[C@H](c3nnn[nH]3)[C@@H](C(=O)O)C3CCCC3)cc2)cn1` [Example 72, (2S,3S)-4-(4-(6-aminopyridin-3-yl)phenyl)-2-cyclopentyl-3-(1H-tetrazol-5-yl)butanoic acid], the IC50 stood at 3.8 nM at VIM-1, 5.6 nM at NDM-1 and 19 nM at IMP-1. Moreover, in test [1], the “IMP1 SM5741 MITC95” value amounted to 0.39 µM. For the same molecule, in test [2], the “VIM1 KP599644 MITC95” value was 12.5 µM. Also, the “NDM1 EC30016 MITC95” value in test [3] is 6.2 µM.
As to `CC(C)[C@H](C(=O)O)[C@H](Cc1ccc(-c2ccc(N)nc2)cc1)c1nnn[nH]1` [Example 73, (2S,3S)-4-(4-(6-aminopyridin-3-yl)phenyl)-2-isopropyl-3-(1H-tetrazol-5-yl)butanoic acid], the 50% inhibitory concentration (IC50) is 7.1 nM at VIM-1, 4.4 nM at NDM-1 and 40 nM on IMP-1. Moreover, in test [1], the “IMP1 SM5741 MITC95” value worked out at 1.2 µM. In addition, the “VIM1 KP599644 MITC95” value in test [2] turned out to be 37.5 µM. Also, the “NDM1 EC30016 MITC95” value in test [3] is 18.8 µM.
In the case of `CC(C)[C@H](C(=O)O)[C@H](Cc1ccc(-c2ccc(CN)cc2)cc1)c1nnn[nH]1` [Example 74, (2S,3S)-4-(4′-(aminomethyl)-[1,1′-biphenyl]-4-yl)-2-isopropyl-3-(1H-tetrazol-5-yl)butanoic acid], the figures for the half-inhibitory concentration (IC50) at VIM-1, at NDM-1 and on IMP-1 were 18 nM, 34 nM and 110 nM, respectively. Besides, the “IMP1 SM5741 MITC95” value in test [1] was 1.6 µM. Also, the “VIM1 KP599644 MITC95” value in test [2] turned out to be 12.5 µM. For the same molecule, the “NDM1 EC30016 MITC95” value in test [3] came to 3.1 µM.
As for `NCc1ccc(-c2ccc(C[C@H](c3nnn[nH]3)[C@@H](C(=O)O)C3CCCC3)cc2)cc1` [Example 75, (2S,3S)-4-(4′-(aminomethyl)-[1,1′-biphenyl]-4-yl)-2-cyclopentyl-3-(1H-tetrazol-5-yl)butanoic acid], the figures for the IC50 on VIM-1, at NDM-1 and at IMP-1 were 4.3 nM, 25 nM and 36 nM, respectively. In addition, the “IMP1 SM5741 MITC95” value in test [1] was 0.78 µM. In addition, the “VIM1 KP599644 MITC95” value in test [2] was 9.4 µM. In test [3], the “NDM1 EC30016 MITC95” value worked out at 3.1 µM.
Turning to `CC(C)[C@H](C(=O)O)[C@H](Cc1ccc(-c2ccc3c(c2)CNC3)nc1)c1nnn[nH]1` [Example 76, (2S,3S)-4-(6-(isoindolin-5-yl)pyridin-3-yl)-2-isopropyl-3-(1H-tetrazol-5-yl)butanoic acid], the results for the IC50 on VIM-1, on NDM-1 and at IMP-1 were 18 nM, 120 nM and 2600 nM, respectively. In addition, in test [1], the “IMP1 SM5741 MITC95” value came to 37.5 µM. Moreover, the “VIM1 KP599644 MITC95” value in test [2] stood at 18.8 µM. Moreover, the “NDM1 EC30016 MITC95” value in test [3] turned out to be 9.4 µM.
As to `CC(C)[C@H](C(=O)O)[C@H](Cc1ccc(-c2cnc(NCCO)nc2)cc1)c1nnn[nH]1` [Example 77, (2S,3S)-4-(4-(2-((2-hydroxyethyl)amino)pyrimidin-5-yl)phenyl)-2-isopropyl-3-(1H-tetrazol-5-yl)butanoic acid], the IC50 at VIM-1 came to 5.7 nM; at NDM-1 it was 6.1 nM; on IMP-1, 99 nM. In addition, the “IMP1 SM5741 MITC95” value in test [1] came to 4.7 µM. For the same molecule, the “VIM1 KP599644 MITC95” value in test [2] is 50 µM. In addition, in test [3], the “NDM1 EC30016 MITC95” value worked out at 6.2 µM.
With `CC(C)[C@H](C(=O)O)[C@H](Cc1ccc(C2CCNC2)cc1)c1nnn[nH]1` (stereo partly drawn) [Example 78, (2S,3S)-2-isopropyl-4-(4-(pyrrolidin-3-yl)phenyl)-3-(1H-tetrazol-5-yl)butanoic acid], the IC50 is 4.5 nM on VIM-1, 23 nM on NDM-1 and 460 nM on IMP-1. In addition, in test [1], the “IMP1 SM5741 MITC95” value was determined as 6.2 µM. Besides, the “VIM1 KP599644 MITC95” value in test [2] came out at 6.2 µM. For the same molecule, the “NDM1 EC30016 MITC95” value in test [3] turned out to be 3.1 µM.
Consider `O=C(O)[C@@H](C1CCCC1)[C@H](Cc1ccc(C2CCNC2)cc1)c1nnn[nH]1` (stereo partly drawn) [Example 79, 3-(4-((2S,3S)-3-carboxy-3-cyclopentyl-2-(1H-tetrazol-5-yl)propyl)phenyl)pyrrolidin-1-ium], for which the IC50 at VIM-1 was found to be 2.3 nM; on NDM-1, 24 nM; on IMP-1 it was 190 nM. For the same molecule, the “IMP1 SM5741 MITC95” value in test [1] worked out at 4.7 µM. Moreover, the “VIM1 KP599644 MITC95” value in test [2] was 6.2 µM. Also, the “NDM1 EC30016 MITC95” value in test [3] was determined as 3.1 µM.
Regarding `O=C(O)[C@@H](C1CCCC1)[C@H](Cc1ccc(C2CCNCC2)cc1)c1nnn[nH]1` [Example 80, 4-(4-((2S,3S)-3-carboxy-3-cyclopentyl-2-(1H-tetrazol-5-yl)propyl)phenyl)piperidine], the IC50 at VIM-1 is 2.2 nM; on NDM-1, 17 nM; at IMP-1 it was 73 nM. The “IMP1 SM5741 MITC95” value in test [1] was determined as 1.6 µM. In test [2], the “VIM1 KP599644 MITC95” value came to 9.4 µM. The “NDM1 EC30016 MITC95” value in test [3] amounted to 6.2 µM.
Consider `CC[C@H](C)[C@H](C(=O)O)[C@H](Cc1ccc(C2CCNC2)cc1)c1nnn[nH]1` (stereo partly drawn) [Example 81, (2S,3S)-3-methyl-2-((1S)-2-(4-(pyrrolidin-3-yl)phenyl)-1-(1H-tetrazol-5-yl)ethyl)pentanoic acid], for which the IC50 at VIM-1 was determined as 4.4 nM; at NDM-1, 46 nM; at IMP-1, 65 nM. Also, the “IMP1 SM5741 MITC95” value in test [1] came out at 2.3 µM. Moreover, the “VIM1 KP599644 MITC95” value in test [2] was 6.2 µM. In test [3], the “NDM1 EC30016 MITC95” value was determined as 2.3 µM.
As for `CCC[C@H](C(=O)O)[C@H](Cc1ccc(C#N)cn1)c1nnn[nH]1` [Example 84, (2S)-2-[(1S)-2-(5-cyanopyridin-2-yl)-1-(1H-tetrazol-5-yl)ethyl]pentanoic acid], the values for the IC50 on VIM-1, on NDM-1 and at IMP-1 were 47 nM, 1200 nM and more than 20000 nM, respectively. Also, the “IMP1 SM5741 MITC95” value in test [1] is more than 200 µM. Moreover, in test [2], the “VIM1 KP599644 MITC95” value turned out to be 50 µM. The “NDM1 EC30016 MITC95” value in test [3] was 18.8 µM.
As to `CCC[C@H](C(=O)O)[C@H](Cc1ccc(C)nc1)c1nnn[nH]1` [Example 85, (2S)-2-[(1S)-2-(6-methylpyridin-3-yl)-1-(1H-tetrazol-5-yl)ethyl]pentanoic acid], the IC50 at VIM-1 was 6.2 nM; at NDM-1, 250 nM; on IMP-1, 6500 nM. Moreover, the “IMP1 SM5741 MITC95” value in test [1] was 100 µM. Also, the “VIM1 KP599644 MITC95” value in test [2] was found to be 18.8 µM. The “NDM1 EC30016 MITC95” value in test [3] stood at 0.78 µM.
`CCC[C@H](C(=O)O)[C@H](Cc1ccc(S(=O)(=O)C2CC2)nc1)c1nnn[nH]1` [Example 86, (2S)-2-[(1S)-2-[6-(cyclopropylsulfonyl)pyridin-3-yl]-1-(1H-tetrazol-5-yl)ethyl]pentanoic acid]: the IC50 at VIM-1 is 11 nM; at NDM-1, 130 nM; on IMP-1, 3300 nM. Moreover, the “IMP1 SM5741 MITC95” value in test [1] came to 125 µM. Besides, the “VIM1 KP599644 MITC95” value in test [2] came out at 100 µM. The “NDM1 EC30016 MITC95” value in test [3] was found to be 50 µM.
